Laboratory results: EP0563127B1, “IMPROVED TREATMENT METHOD FOR CANCER” (priority 1990, dated 1992)
Where two headings read alike, the source gives them in different places.

What was measured:
[1] = system: B16 melanoma cells; assay: In vivo augmentation of BCNU anti-tumor activity in a B16 melanoma lung metastasis model; set-up: species or system C57Bl mice; details: for (% control) of lung metastases / Numbers of lung metastases / Median Survival: intraperitoneal day 1; for (% control) of lung metastases / Numbers of lung metastases: lungs at day 14; for Numbers of lung metastases: saline 241; for Median Survival: saline 19; for Size of lung metastases: Macro means visually determined, Micro means microscopically only
Experimental: 5 x 10⁴ B16 melanoma cells were injected intravenously into the tail vein of C57Bl mice at day 0. The mice were treated with either saline, 32mg/kg of DPPE, 1mg of BCNU or a combination of 32mg/kg of DPPE and 1mg of BCNU, by intraperitoneal injection on day 1. The DPPE was administered 60 minutes before the BCNU.
In each group, six of the twelve animals were sacrificed at day 14 and lungs were removed for determination of metastasis. The remaining six animals were followed to death. The numbers and size of the lung metastases were determined by visual or microscope count.

[2] = system: bone marrow progenitors; details: for CFU-C/10⁴ cells (No. of bone marrow colonies) / R.C.S. (Relative Cell Survival): 5FU lethal dose (7.5mg) alone; for R.C.S. (Relative Cell Survival) / R.C.S.: saline = 1.0
Experimental: The DPPE and saline were administered 90 minutes prior to the 5FU. Bone marrow cell counts were made at 24 hours and 48 hours post administration.
Experiments paralleling those described above with 5FU were carried out employing a lethal dose of adriamycin (20mg/kg).

[3] = system: B16f10 melanoma cells; assay: In vivo augmentation of daunorubicin anti-tumor activity in a B16 melanoma lung metastasis model; set-up: species or system mice; details: Daunorubicin 12.5 mg/kg alone, 24 hours after cells
Experimental: The procedure of Example III was repeated employing daunorubicin in place of BCNV. Groups of six mice were injected with B16f10 melanoma cells and 24 hours later received saline, 4 mg/kg of DPPE alone, a non-lethal dose of daunorubicin alone (12.5 mg/kg) or DPPE (4, 25 or 50 mg/kg) one hour prior to daunorubicin (12.5 mg/kg). All animals were followed to death or for 60-days post injection, and sacrificed for lung metastases.

[4] = system: C-3 fibrosarcoma cells; assay: In vivo augmentation of adriamycin anti-tumor activity in a murine sarcoma model; set-up: species or system C3H mice; details: intraperitoneally day 1, followed 60 days
Experimental: C-3 fibrosarcoma cells (3 x 10⁵) were injected into the left gluteal region of C3H mice on day 0. On day 1, the mice were provided with treatment by a combination of DPPE and adriamycin, administered intraperitoneally. The DPPE was administered 60 minutes prior to administration of the adriamycin. Mice also were administered with saline, DPPE alone and adriamycin alone.
Animals in the experiments (n=12) were followed for 60 days. At the end of the experimental period, those animals free of palpable tumors were considered cured.

[5] = system: patients with advanced cancer; assay: Clinical study in patients with advanced cancer
Experimental: A clinical study was carried out with 14 patients with advanced cancer. • (a) DPPE alone was administered to patients to determine a safe dose range in humans.

[6] = system: mice
[7] = system: prostaglandin (PG)I₂; assay: Prostaglandin level in the gut after DPPE treatment; format: in vivo
Source text: In addition, the antagonism results in an increase in the levels of prostaglandins (natural substances which are known to protect tissues from various injurious agents) in the tissue. For example, DPPE treatment results in an increase by 500% in prostaglandin (PG)I₂, a protective prostaglandin, in the gut.

[8] = system: ulcer formation; details: in the presence of noxious agents, such as alcohol and cysteamine; see US-A-4,829,068; cited from earlier work
[9] = system: malignant cells; details: as described in US-A- No. 4,803,227; cited from earlier work
[10] = system: human breast cancer cell (MCF-7); assay: Thymidine incorporation and cytotoxicity in breast cancer cells; format: cell-based; details: 0.25 nM of thymidine, Figure 5
Experimental: The experiment was again repeated using human breast cancer cell (MCF-7) with 0.25 nM of thymidine added. The results were plotted graphically and appear as Figure 5.

[11] = system: DBA/2 mice; assay: In vivo host cytoprotection from a lethal dose of adriamycin; details: DPPE 2 mg/kg 1 hour (n=12) or 15 minutes (n=6) prior to 15 mg/kg of adriamycin, after 30 days
Experimental: Saline or DPPE (2 mg/kg) were administered to DBA/2 mice 1 hour (n=12) or 15 minutes (n=6) prior to administration of 15 mg/kg of adriamycin. The number of survivors after 30 days was determined.

[12] = system: certain B cells; assay: Interleukin-2 stimulated antibody formation in B cells; format: cell-based
Source text: As with bone marrow cells, the treatment of normal proliferating lymphocytes (immune cells), according to the invention, results in a dose-dependent blocking of DNA synthesis and a shut-down of these cells without causing cytotoxicity. The antagonist has an effect on both T-lymphocytes and B-lymphocytes in the immune system. […] DPPE also blocks the stimulation of antibody formation by the mediator interleukin-2 in certain B cells, resulting is a decrease in antibody formation.

[13] = system: Spleen cells from BALB/C mice; assay: Thymidine incorporation into DNA of Concanavalin A-stimulated lymphocytes; format: cell-based
Experimental: Spleen cells from BALB/C mice were stimulated with Concanavalin A (5 µg/ml) for thymidine incorporation. The cells then were treated with varying does of DPPE and the level of thymidine incorporated was determined. The results were plotted graphically and appear as Figure 1.
The experiment was repeated using 2.5 µg/ml of Concanavalin A in place of 5 µg/ml and 2% fetal calf serum in place of 10%. The results obtained are illustrated in Figure 2.

[14] = system: virally-infected non-senescing transformed spleen-derived lymphocytes (S-10); assay: Thymidine incorporation and cytotoxicity in virally-infected transformed lymphocytes; format: cell-based, BALB/C origin
Experimental: The experiment of Example VI was repeated employing virally-infected non-senescing transformed spleen-derived lymphocytes (S-10) also of BALB/C origin with 0.25 nM of ³H-thymidine added. The results were plotted graphically and appear as Figures 3 and 4 respectively. As may be seen therein, in contrast to Figures 1 and 2, 25 µM of DPPE caused approximately 50% cytotoxicity to the virally-infected cells. When adjusted for cell number, thymidine incorporation increased at cytotoxic concentrations of DPPE (10 to 25 µM).

[15] = administered five hours or more prior to the chemotherapeutic agent; cited from earlier work
[16] = Adriamycin lethal dose (20mg/kg) alone, 24h
[17] = Adriamycin lethal dose (20mg/kg) alone, 48h
[18] = DPPE 0.2 mg/kg daily, patients treated with Adriamycin (60 mg/m²)
[19] = 25 µM DPPE, Concanavalin A 5 µg/ml, 10% fetal calf serum, Figure 1

O=NN(CCCl)C(=O)NCCCl [BCNU, reference compound]
(% control) of lung metastases ([1]; BCNU 1mg alone): 60%
Numbers of lung metastases ([1]; BCNU 1mg alone): 144
Median Survival ([1]; BCNU 1mg alone): 24 days
Size of lung metastases ([1]; BCNU 1mg alone): All Macro

O=c1[nH]cc(F)c(=O)[nH]1 [5FU, 5-fluorouracil]
CFU-C/10⁴ cells (No. of bone marrow colonies) ([2]; 24h): 0.2 CFU-C/10⁴ cells
R.C.S. (Relative Cell Survival) ([2]; 24h): 0.006
CFU-C/10⁴ cells (No. of bone marrow colonies) ([2]; 48h): 0.09 CFU-C/10⁴ cells
R.C.S. (Relative Cell Survival) ([2]; 48h): 0.002

COc1cccc2c1C(=O)c1c(O)c3c(c(O)c1C2=O)C[C@@](O)(C(C)=O)C[C@@H]3O[C@H]1C[C@H](N)[C@H](O)[C@H](C)O1 [Daunorubicin, daunorubicin]
No. Cures (n=6) ([3]; followed 60 days): 0
Median Survival ([3]; followed to death or 60 days, saline 17): 25 days

COc1cccc2c1C(=O)c1c(O)c3c(c(O)c1C2=O)C[C@@](O)(C(=O)CO)C[C@@H]3O[C@H]1C[C@H](N)[C@H](O)[C@H](C)O1 [Adriamycin, doxorubicin]
CFU-C/10⁴ cells [2, 16]: 1.8 CFU-C/10⁴ cells
R.C.S. [2, 16]: 0.04
CFU-C/10⁴ cells [2, 17]: 0.65 CFU-C/10⁴ cells
R.C.S. [2, 17]: 0.006
Number of Mice Tumor-Free (n=12) ([4]; Adriamycin 2mg/kg alone): 0

CCN(CC)CCOc1ccc(Cc2ccccc2)cc1 [DPPE, N,N-diethyl-2-[4-(phenylmethyl)-phenoxy]ethanamine]
mouth ulceration ([5]; 72-hour infusion of low dose DPPE, one patient): prevented
acute and delayed gastrointestinal side effects of Adriamycin ([5]; DPPE 0.2 mg/kg daily as a 72-hour infusion, Adriamycin 60 mg/m², four patients, two treatments each): block completely
anti-emetic effect ([5]; DPPE 0.2 mg/kg daily, 24-hour infusion, first 24 to 48 hours following Adriamycin, delayed nausea, vomiting and/or anorexia at 72 or 96 hours in many patients): effective anti-emetic therapy
amelioration of nausea, vomiting, anorexia and stomatitis [5, 18]: over 90%
patients in whom nausea, vomiting, anorexia and stomatitis were prevented or ameliorated [5, 18]: 6/6
toxicity ([5]; DPPE alone, 6 mg/kg administered IV over 2 hours): significant toxicity was absent
highest non-toxic dosage ([5]; DPPE alone, given intravenously over a one-hour period): 4 mg/kg
effect on platelets, hemoglobin or biochemistry ([5]; human, in vivo): No significant effect
CNS toxicity ([5]; human, in vivo, 6 mg/kg): dose limiting
drop in body core temperature ([5]; human, in vivo, 6 mg/kg): 1-2 °C
threshold for CNS toxicity ([5]; human, in vivo, 1 h): 240 mg/M²
changes in biochemistries or blood counts ([5]; human, in vivo, iv, 0.2 mg/kg): not to cause any significant changes
clinical side effects ([5]; human, in vivo, iv, 0.2 mg/kg): entirely without clinical side effects
antiemetic effect against Adriamycin ([5]; single iv doses of DPPE (1, 2, 4 mg/kg) given over 1 hour): significantly antiemetic
threshold for CNS toxicity [6]: 240 mg/M²
increase in prostaglandin (PG)I₂ in the gut [7]: 500%
ulcer formation [8]: completely block
CFU-C/10⁴ cells ([2]; DPPE 4mg/kg alone, 24h): 42.3 CFU-C/10⁴ cells
R.C.S. ([2]; DPPE 4mg/kg alone, 24h): 0.97
CFU-C/10⁴ cells ([2]; DPPE 4mg/kg alone, 48h): 41.3 CFU-C/10⁴ cells
R.C.S. ([2]; DPPE 4mg/kg alone, 48h): 0.97
effect on malignant cells in vitro [9]: damages and/or kills
cytotoxicity and thymidine incorporation compared with S-10 cells [10]: Analogous results
Number of Survivors ([11]; saline group 4/12): 13/18
Number of Survivors (percent) ([11]; saline group 33%): 72%
(% control) of lung metastases ([1]; DPPE 32mg/kg alone): 91%
Numbers of lung metastases ([1]; DPPE 32mg/kg alone): 219
Median Survival ([1]; DPPE 32mg/kg alone): 21 days
Size of lung metastases ([1]; DPPE 32mg/kg alone): All Macro
stimulation of antibody formation by interleukin-2 [12]: blocks
cell survival [13, 19]: does not adversely affect
thymidine incorporation into DNA [13, 19]: completely blocks
concentrations of DPPE which inhibited DNA synthesis ([13]; Concanavalin A 2.5 µg/ml, 2% fetal calf serum, Figure 2): 5 µm
cytotoxicity ([13]; at 5 µm DPPE, Concanavalin A 2.5 µg/ml, 2% fetal calf serum, Figure 2): no significant cytotoxicity
proliferation of T-lymphocytes ([13]; in the presence of Concanavalin A): completely antagonize
Number of Mice Tumor-Free (n=12) ([4]; DPPE 50mg/kg alone): 0
cytotoxicity to the virally-infected cells ([14]; 25 µM of DPPE, S-10 cells, Figures 3 and 4): approximately 50%
thymidine incorporation adjusted for cell number ([14]; at cytotoxic concentrations of DPPE (10 to 25 µM), 0.25 nM ³H-thymidine): increased

N[C@H](CO)Cc1c[nH]cn1 [L-histidinol]
effective doses [15]: approximately 1000 mg/kg of tissue
